Reference: publication doi:10.1101/2020.06.11.145995v1 (biorxiv, 2020)
Where two headings read alike, the source gives them in different places. Each block holds one molecule with its values, some of them ahead of it.

Tests used:
Experiment in all cases: biochemical
RIPK4 = RIPK4 (Homo sapiens, UniProt P57078)
TYK2 = TYK2 (Homo sapiens, UniProt P29597)
PRKG1 = PRKG1 (Homo sapiens, UniProt Q13976)
PAK3 = PAK3 (Homo sapiens, UniProt O75914)
NEK2 = NEK2 (Homo sapiens, UniProt P51955)
NDR2 = NDR2 (Homo sapiens, UniProt Q9Y2H1)
FLT3(D835Y) = FLT3(D835Y) (Homo sapiens, UniProt P36888, D835Y)
MEK3 = MEK3 (Homo sapiens, UniProt P46734)
MET(Y1235D) = MET(Y1235D) (Homo sapiens, UniProt P08581, Y1235D)
EGFR = EGFR (Homo sapiens, UniProt P00533)
HIPK1 = HIPK1 (Homo sapiens, UniProt Q86Z02)
FYN = FYN (Homo sapiens, UniProt P06241)
CDK3 = CDK3 (Homo sapiens, UniProt Q00526)
CSK = CSK (Homo sapiens, UniProt P41240)
KIT(D816H) = KIT(D816H) (Homo sapiens, UniProt P10721, D816H)
GRK1 = GRK1 (Homo sapiens, UniProt Q15835)
JNK3 = JNK3 (Homo sapiens, UniProt P53779)
IRAK4 = IRAK4 (Homo sapiens, UniProt Q9NWZ3)
GAK = GAK (Homo sapiens, UniProt O14976)
HCK = HCK (Homo sapiens, UniProt P08631)
CDK4-cyclinD3 = CDK4-cyclinD3 (Homo sapiens, UniProt P11802)
MRCKB = MRCKB (Homo sapiens, UniProt Q9Y5S2)
[1] = molecular target: JAK1(JH1domain-catalytic) (Homo sapiens, UniProt P23458)
KIT(V559D,V654A) = KIT(V559D,V654A) (Homo sapiens, UniProt P10721, V559D/V654A)
[2] = molecular target: ABL1(T315I)-phosphorylated (Homo sapiens, UniProt P00519, T315I)
[3] = molecular target: ABL1(F317L)-nonphosphorylated (Homo sapiens, UniProt P00519, F317L)
[4] = molecular target: ABL1(H396P)-nonphosphorylated (Homo sapiens, UniProt P00519, H396P)
[5] = molecular target: ABL1(Q252H)-phosphorylated (Homo sapiens, UniProt P00519, Q252H)
[6] = read-out: CPT-1-70-1 (1μM) % control
[7] = read-out: CPT-1-70-1 (1uM) % control
[8] = read-out: HYJ-2-002-1 (1μM) % control
[9] = read-out: HYJ-2-002-1 (1uM) % control

Chain of TYK2 (P29597 whole entry): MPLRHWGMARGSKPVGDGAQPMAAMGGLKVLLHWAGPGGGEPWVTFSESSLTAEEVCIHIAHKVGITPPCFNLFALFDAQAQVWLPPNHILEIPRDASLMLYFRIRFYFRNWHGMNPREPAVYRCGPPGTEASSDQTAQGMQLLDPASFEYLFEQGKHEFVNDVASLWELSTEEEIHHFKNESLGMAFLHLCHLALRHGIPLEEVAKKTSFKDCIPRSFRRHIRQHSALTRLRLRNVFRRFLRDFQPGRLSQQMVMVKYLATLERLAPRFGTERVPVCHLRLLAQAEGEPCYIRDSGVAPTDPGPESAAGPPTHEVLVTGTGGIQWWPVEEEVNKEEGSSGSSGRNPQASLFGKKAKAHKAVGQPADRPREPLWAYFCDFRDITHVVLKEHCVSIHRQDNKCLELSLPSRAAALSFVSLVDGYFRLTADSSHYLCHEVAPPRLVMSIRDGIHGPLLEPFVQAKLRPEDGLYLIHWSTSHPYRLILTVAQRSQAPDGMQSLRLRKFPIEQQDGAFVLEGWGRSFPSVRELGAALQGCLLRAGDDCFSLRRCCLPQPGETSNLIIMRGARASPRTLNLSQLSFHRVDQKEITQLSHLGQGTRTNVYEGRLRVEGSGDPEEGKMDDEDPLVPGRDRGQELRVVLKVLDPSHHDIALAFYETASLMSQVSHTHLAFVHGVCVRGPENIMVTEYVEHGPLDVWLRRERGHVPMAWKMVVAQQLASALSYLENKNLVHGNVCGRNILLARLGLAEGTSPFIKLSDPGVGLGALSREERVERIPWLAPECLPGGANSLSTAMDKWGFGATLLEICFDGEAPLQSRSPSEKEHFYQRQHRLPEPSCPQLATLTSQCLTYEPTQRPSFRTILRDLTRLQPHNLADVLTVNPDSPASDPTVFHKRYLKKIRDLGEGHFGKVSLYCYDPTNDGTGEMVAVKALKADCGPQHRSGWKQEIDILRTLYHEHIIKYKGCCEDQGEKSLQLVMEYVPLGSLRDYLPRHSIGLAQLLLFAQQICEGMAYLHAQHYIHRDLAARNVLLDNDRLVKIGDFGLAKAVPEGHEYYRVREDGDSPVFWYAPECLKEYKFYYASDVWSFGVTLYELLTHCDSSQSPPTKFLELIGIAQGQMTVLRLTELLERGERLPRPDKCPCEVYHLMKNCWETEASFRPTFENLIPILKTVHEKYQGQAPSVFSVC
Chain of MET(Y1235D) (P08581 whole entry Y1235D): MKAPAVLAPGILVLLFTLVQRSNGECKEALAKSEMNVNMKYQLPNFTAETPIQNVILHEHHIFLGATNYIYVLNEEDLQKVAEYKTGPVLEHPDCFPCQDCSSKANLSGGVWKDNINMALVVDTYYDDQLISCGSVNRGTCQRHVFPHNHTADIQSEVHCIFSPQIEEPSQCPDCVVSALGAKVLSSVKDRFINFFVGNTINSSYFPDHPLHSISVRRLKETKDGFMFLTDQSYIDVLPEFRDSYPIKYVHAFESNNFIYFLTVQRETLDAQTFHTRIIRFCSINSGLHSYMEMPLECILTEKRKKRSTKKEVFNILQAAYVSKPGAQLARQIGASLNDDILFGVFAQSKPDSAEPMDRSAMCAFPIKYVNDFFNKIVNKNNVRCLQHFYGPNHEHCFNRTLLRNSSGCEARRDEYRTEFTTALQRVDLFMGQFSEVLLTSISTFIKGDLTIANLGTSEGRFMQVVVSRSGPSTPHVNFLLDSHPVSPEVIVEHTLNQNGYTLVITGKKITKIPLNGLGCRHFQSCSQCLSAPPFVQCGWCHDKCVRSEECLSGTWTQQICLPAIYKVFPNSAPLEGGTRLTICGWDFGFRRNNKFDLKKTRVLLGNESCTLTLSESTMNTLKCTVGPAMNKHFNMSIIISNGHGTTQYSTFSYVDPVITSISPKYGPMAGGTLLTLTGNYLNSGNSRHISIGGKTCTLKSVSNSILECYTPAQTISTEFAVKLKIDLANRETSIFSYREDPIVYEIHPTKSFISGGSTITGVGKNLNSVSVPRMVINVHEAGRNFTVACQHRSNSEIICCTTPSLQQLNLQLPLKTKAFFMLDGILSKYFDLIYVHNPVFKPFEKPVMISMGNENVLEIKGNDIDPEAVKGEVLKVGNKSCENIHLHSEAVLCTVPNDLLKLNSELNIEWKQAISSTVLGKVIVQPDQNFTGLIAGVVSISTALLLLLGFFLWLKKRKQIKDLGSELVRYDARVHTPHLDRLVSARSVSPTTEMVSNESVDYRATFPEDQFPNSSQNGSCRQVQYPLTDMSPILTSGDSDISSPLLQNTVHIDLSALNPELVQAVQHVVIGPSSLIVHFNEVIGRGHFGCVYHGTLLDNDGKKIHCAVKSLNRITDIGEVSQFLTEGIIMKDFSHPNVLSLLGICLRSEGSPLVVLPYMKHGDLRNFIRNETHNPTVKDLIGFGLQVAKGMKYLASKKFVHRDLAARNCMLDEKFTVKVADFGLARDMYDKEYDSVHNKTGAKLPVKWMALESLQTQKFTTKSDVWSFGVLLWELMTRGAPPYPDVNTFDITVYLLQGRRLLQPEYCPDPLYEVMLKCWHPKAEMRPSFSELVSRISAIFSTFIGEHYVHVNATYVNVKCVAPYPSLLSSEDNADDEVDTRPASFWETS
Chain of JNK3 (P53779 whole entry): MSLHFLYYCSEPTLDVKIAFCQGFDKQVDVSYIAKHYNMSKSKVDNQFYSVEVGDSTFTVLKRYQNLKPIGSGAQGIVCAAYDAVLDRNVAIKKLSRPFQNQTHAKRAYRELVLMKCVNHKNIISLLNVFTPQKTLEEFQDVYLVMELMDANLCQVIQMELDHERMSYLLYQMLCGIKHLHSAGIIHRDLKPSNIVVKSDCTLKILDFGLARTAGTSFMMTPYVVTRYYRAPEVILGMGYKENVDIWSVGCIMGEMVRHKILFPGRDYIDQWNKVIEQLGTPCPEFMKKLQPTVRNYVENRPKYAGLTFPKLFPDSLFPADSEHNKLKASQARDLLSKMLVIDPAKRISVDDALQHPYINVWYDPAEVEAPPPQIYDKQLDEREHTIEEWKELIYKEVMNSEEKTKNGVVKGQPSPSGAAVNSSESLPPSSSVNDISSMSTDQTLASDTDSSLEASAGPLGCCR
Chain of MEK3 (P46734 whole entry): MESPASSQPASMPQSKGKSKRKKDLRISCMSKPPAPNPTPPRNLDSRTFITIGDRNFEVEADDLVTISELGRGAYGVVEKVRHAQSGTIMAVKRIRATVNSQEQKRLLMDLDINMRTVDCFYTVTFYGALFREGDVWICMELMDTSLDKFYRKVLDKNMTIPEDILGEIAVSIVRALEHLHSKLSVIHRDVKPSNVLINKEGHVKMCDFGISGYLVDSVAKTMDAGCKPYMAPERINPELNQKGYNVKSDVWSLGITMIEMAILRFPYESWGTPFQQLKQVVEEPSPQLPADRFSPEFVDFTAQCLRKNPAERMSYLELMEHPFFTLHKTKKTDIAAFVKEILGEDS
Chain of GAK (O14976 whole entry): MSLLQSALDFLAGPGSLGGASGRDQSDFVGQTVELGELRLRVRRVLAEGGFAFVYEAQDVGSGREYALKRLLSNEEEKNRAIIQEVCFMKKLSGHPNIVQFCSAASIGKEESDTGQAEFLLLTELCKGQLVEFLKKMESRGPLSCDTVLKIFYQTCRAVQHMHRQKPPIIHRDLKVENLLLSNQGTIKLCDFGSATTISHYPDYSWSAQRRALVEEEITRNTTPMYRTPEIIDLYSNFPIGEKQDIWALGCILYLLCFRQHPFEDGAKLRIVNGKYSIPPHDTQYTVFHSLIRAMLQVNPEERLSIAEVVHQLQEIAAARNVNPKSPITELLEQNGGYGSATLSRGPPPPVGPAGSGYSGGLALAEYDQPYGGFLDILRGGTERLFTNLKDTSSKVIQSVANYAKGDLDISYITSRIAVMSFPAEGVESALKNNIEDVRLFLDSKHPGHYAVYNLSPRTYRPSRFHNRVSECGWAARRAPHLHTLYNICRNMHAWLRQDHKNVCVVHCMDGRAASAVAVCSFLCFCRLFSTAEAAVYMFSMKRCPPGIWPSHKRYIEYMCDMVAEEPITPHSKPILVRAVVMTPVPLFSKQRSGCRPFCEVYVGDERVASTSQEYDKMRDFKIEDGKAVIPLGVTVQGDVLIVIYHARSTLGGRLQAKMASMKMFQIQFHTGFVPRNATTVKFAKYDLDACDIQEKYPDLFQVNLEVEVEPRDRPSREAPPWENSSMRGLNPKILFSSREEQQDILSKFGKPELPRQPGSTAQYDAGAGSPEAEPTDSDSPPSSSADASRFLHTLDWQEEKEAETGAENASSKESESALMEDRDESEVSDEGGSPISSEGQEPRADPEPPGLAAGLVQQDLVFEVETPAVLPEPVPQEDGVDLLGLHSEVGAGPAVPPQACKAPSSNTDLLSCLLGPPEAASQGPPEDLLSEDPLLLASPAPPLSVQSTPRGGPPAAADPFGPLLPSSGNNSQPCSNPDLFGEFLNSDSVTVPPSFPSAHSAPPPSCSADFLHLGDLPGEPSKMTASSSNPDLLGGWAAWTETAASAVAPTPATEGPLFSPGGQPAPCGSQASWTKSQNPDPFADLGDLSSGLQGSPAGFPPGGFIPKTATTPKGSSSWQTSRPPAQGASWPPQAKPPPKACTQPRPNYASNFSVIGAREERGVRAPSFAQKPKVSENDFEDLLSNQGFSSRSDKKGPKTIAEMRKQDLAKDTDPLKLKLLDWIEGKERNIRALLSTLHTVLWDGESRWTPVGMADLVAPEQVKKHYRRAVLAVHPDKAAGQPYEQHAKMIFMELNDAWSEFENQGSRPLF
Chain of CDK3 (Q00526 whole entry): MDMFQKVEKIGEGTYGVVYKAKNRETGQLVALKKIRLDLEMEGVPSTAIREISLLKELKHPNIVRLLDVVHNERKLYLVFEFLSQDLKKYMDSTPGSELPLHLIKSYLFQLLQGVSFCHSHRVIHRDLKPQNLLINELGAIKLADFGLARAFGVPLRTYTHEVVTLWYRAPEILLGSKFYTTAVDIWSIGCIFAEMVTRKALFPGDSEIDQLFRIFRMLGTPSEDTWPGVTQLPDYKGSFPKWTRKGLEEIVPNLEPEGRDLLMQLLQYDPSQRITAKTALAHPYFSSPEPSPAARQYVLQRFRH

SMILES: CN1CCN(c2ccc(Nc3nc(Oc4ccc(NC(=O)CCl)cc4)c4cc[nH]c4n3)cc2)CC1 [CPT1-70-1]
remaining activity at 1 µM (RIPK4; [6]): 100% | remaining activity at 1 µM (TYK2; read-out: CPT-1-70-1 (1μM) % control, JH1 domain-catalytic): 7.4% | remaining activity at 1 µM (TYK2; read-out: CPT-1-70-1 (1μM) % control, JH2 domain-pseudokinase): 68% | remaining activity at 1 µM (PRKG1; [6]): 100% | remaining activity at 1 µM (PAK3; [6]): 50% | remaining activity at 1 µM (NEK2; [6]): 100% | remaining activity at 1 µM (NDR2; [6]): 61% | remaining activity at 1 µM (FLT3(D835Y); [7]): 0.35% | remaining activity at 1 µM (MEK3; [7]): 26% | remaining activity at 1 µM (MET(Y1235D); [7]): 23% | remaining activity at 1 µM (EGFR; [7]): 63% | remaining activity at 1 µM (HIPK1; [7]): 52% | remaining activity at 1 µM (FYN; [7]): 90% | remaining activity at 1 µM (CDK3; [7]): 100% | remaining activity at 1 µM (CSK; [7]): 93% | remaining activity at 1 µM (KIT(D816H); [7]): 83% | remaining activity at 1 µM (GRK1; [7]): 82% | remaining activity at 1 µM (JNK3; [7]): 4.6% | remaining activity at 1 µM (IRAK4; [7]): 94% | remaining activity at 1 µM (GAK; [7]): 7.9% | remaining activity at 1 µM (HCK; [7]): 85% | remaining activity at 1 µM (CDK4-cyclinD3; [7]): 100% | remaining activity at 1 µM (MRCKB; [7]): 100% | remaining activity at 1 µM [1, 7]: 77% | remaining activity at 1 µM (KIT(V559D,V654A); [7]): 100% | remaining activity at 1 µM [2, 7]: 19% | remaining activity at 1 µM [3, 7]: 100% | remaining activity at 1 µM [4, 7]: 7.2% | remaining activity at 1 µM [5, 7]: 100%

remaining activity at 1 µM (RIPK4; [8]): 100% | remaining activity at 1 µM (TYK2; read-out: HYJ-2-002-1 (1μM) % control, JH1 domain-catalytic): 53% | remaining activity at 1 µM (TYK2; read-out: HYJ-2-002-1 (1μM) % control, JH2 domain-pseudokinase): 100% | remaining activity at 1 µM (PRKG1; [8]): 100% | remaining activity at 1 µM (PAK3; [8]): 100% | remaining activity at 1 µM (NEK2; [8]): 95% | remaining activity at 1 µM (NDR2; [8]): 100% | remaining activity at 1 µM (FLT3(D835Y); [9]): 38% | remaining activity at 1 µM (MEK3; [9]): 100% | remaining activity at 1 µM (MET(Y1235D); [9]): 83% | remaining activity at 1 µM (EGFR; [9]): 5% | remaining activity at 1 µM (HIPK1; [9]): 51% | remaining activity at 1 µM (FYN; [9]): 2.2% | remaining activity at 1 µM (CDK3; [9]): 99% | remaining activity at 1 µM (CSK; [9]): 0.8% | remaining activity at 1 µM (KIT(D816H); [9]): 43% | remaining activity at 1 µM (GRK1; [9]): 100% | remaining activity at 1 µM (JNK3; [9]): 75% | remaining activity at 1 µM (IRAK4; [9]): 94% | remaining activity at 1 µM (GAK; [9]): 4.8% | remaining activity at 1 µM (HCK; [9]): 0.55% | remaining activity at 1 µM (CDK4-cyclinD3; [9]): 100% | remaining activity at 1 µM (MRCKB; [9]): 100% | remaining activity at 1 µM [1, 9]: 41% | remaining activity at 1 µM (KIT(V559D,V654A); [9]): 28% | remaining activity at 1 µM [2, 9]: 0.75% | remaining activity at 1 µM [3, 9]: 0% | remaining activity at 1 µM [4, 9]: 0% | remaining activity at 1 µM [5, 9]: 1%
SMILES: CCN1CCN(Cc2ccc(NC(=O)c3ccc(C)c(CCc4cnc5[nH]ccc5c4OC)c3)cc2C(F)(F)F)CC1 [HYJ-2-002-1]
